The results in this text go back to patent EP0252482A2, “7-Acyloxy-6-aminoacyloxypolyoxylabdanes, process for their preparation and their use as medicine” (HOECHST AKTIENGESELLSCHAFT, priority 1986, dated 1988).

Structures can show the parent of a compound that is named as a salt.

The test system of assay [1] is Katzen. The assay is described as follows: Blood pressure in the anaesthetised cat (femoral artery), i.v. administration. Conditions: Katze, Dosis 3 mg/kg. The assay is classed as in vivo. The procedure: 1. Blutdruck an der Katze: Katzen beiderlei Geschlechts von 3 bis 4 kg Gewicht wurden mit Äther narkotisiert und unter Chloralose-Narkose (70 mg/kg, i.v.) gehalten. Sowohl die Oberschenkelarterie als auch -vene wurden zur Aufzeichnung des Blutdrucks und zur Verabreichung von Medikamenten kanüliert. Der Blutdruck in der Oberschenkelarterie wurde über einen Messwandler Statham 23 Db auf einem physiologischen Nihon-Kohden-Registriergerät aufgezeichnet. Die zu prüfende Verbindung wurde in destilliertem Wasser gelöst und intravenös verabreicht, und der Blutdruckabfall und die Dauer der blutdrucksenkenden Wirkung wurden notiert.
Die mit diesem Modell für typische erfindungsgemäße Verbindungen erhaltenen Resultate sind in der nachfolgenden Tabelle angegeben: […]

Assay [2] relates to Beagle-Hunde. The assay is described as follows: Blood pressure, heart rate and left ventricular dp/dt in the anaesthetised beagle dog, i.v. administration. Conditions: Hund; for Blutdruckabfall: Natriumpentobarbital; for % Zunahme in dp/dt max: left ventricle. It is filed as in vivo. The protocol: 2. Blutdruck am Hund: Methode: Beagle-Hunde beiderlei Geschlechts (Gewicht im Bereich 10 bis 15 kg) wurden mit Natriumpentobarbital narkotisiert (35 mg/kg, i.v.). Nach Einführung eines Endotrachealrohrs wurden sowohl die Oberschenkelarterie als auch die -vene zur Aufnahme des Blutdrucks und zur Verabreichung der Verbindung kanüliert. Der Druck im linken Ventrikel wurde mit einem Katheterspitzen-Messwandler (Millar-Kathether) gemessen und über einen Hugo Sachs-Differentiator differenziert. Sämtliche Methoden wurden auf einem Hellige-Schreibgerät mit sechs Kanälen aufgezeichnet. Die Elektrokardiogrammsignale wurden auf einem Becton-Dickinson-Gerät verfolgt.
Eine einprozentige Lösung der erfindungsgemäßen Verbindung in destilliertem Wasser wurde hergestellt und in verschiedenen Dosierungen intravenös verabreicht.

In assay [1] (Chloralose-Narkose), `C=CC1(C)CC(=O)C2(O)C(C)(O1)C(OC(=O)CC)C(OC(=O)CN1CCCCC1)C1C(C)(C)CCC(O)C12C` (stereo not drawn) [C2H5, 1α,9α-Dihydroxy-8,13-epoxy-6ß-piperidino acetoxy-7ß-propionyloxy-labd-14-en-11-on hydrochlorid] showed a Blutdruckabfall of 30 mm Hg. Moreover, in assay [1] (duration of hypotensive effect), the Dauer is more than 120 min. For the same compound, in assay [2] (Dosis 0.3 mg/kg), the Dauer was found to be 10 min, the Blutdruckabfall is 10 mm Hg and the “% Zunahme in dp/dt max” value is on record as “+38%”. In addition, in assay [2] (Dosis 1.0 mg/kg), the Dauer was 60 min, the Pulszunahme entry is listed as “+19 Pulsschläge pro Min”, the Blutdruckabfall is 46 mm Hg and the “% Zunahme in dp/dt max” value is listed as “+65%”.
